Source: patent publication US20190038597A1, “PREVENTION OF VASCULAR AND CARDIAC FIBROSIS VIA IRE1ALPHA INHIBITION” (McMaster University, priority 2017, published 2019)

Test system: VSMCs
Test: Picro-Sirius Red assay of collagen synthesis in VSMCs
Assay type: cell-based, rat
Procedure: VSMCs were cultured in DMEM/F12 containing 1% FBS. Confluent cells were treated with L-ascorbic acid-2-phosphate (100 μg/ml) and either TGF-β1 (5 ng/ml) or Ang II (1 μM). (A) Agarose gel for assessment of TGF-β1-induced XBP1 splicing in VSMCs after 24 h. (B) Picro-Sirius Red assay for measurement of collagen deposition induced by combined TGF-β1 and AA2P treatment after 72 h, and inhibition by 4μ8c and STF-083010. (C) Western blot for assessment of collagen chaperone expression after treatment of TGF-β1 and 4μ8c for 48 h. *, p<0.05. (D) Measurement of Ang II-induced collagen production and inhibition by 4μ8c and STF-083010 after 72 h.
VSMCs were isolated from the aortas of 5-week old WKY rats using the explant method^29. The thoracic aorta was removed from the animal and placed in ice-cold 5× Antibiotics-Antimycotics solution (ThermoFisher). The adventitia was gently removed and the aorta was cut longitudinally. The endothelial layer was removed by gentle scraping with forceps. The aorta was cut into 3 mm^2 squares and placed on a 6 well plate in DMEM/F12 medium containing 10% fetal bovine serum (FBS). Explants were incubated undisturbed in a 5% CO2 incubator at 37° C. for 1 week and then passaged. Sprague-Dawley renal fibroblasts were purchased (Cell Biologics) and cultured in low glucose DMEM/F12 medium containing 10% FBS, streptomycin (100 μgimp, and penicillin (100 U/ml, Invitrogen, Burlington, ON). Cells between passages 5 and 10 were used for experiments. Cells were cultured in medium containing 1% FBS overnight before treatment.
Collagen synthesis was measured using a Picro-Sirius Red-based assay as previously described^30. Briefly, cells cultured on a 96 well plate were fixed in methanol for 10 minutes at −20° C. Cells were washed once with PBS and incubated with Picrosirius Red stain (0.1% Direct Red 80 in saturated picric acid) for 1 h at room temperature. After the staining solution was removed, the cells were washed three times with 0.1% acetic acid and then imaged. The dye was then eluted with 0.1 N NaOH for 10 minutes on a rocking platform. Absorbance at 540 nm was measured using a Spectramax Plus Microplate Reader (Molecular Devices).
Cells were co-treated with either 4μ8c or S′TF-083010 to inhibit IRE1α endonuclease activity. TGF-β1 induced XBP1 splicing after 24 h, which was blocked by co-treatment with 4μ8c (FIG. 2A). Collagen production was measured using a Picro-Sirius Red-based colorimetric assay. TGF-β1 combined with AA2P induced collagen synthesis in the VSMCs, which was inhibited by co-treatment with 4μ8c or STF-083010 (FIG. 2B).

Structure (SMILES): Cc1cc(=O)oc2c(C=O)c(O)ccc12 [4μ8c, 7-Hydroxy-4-methyl-2-oxo-2H-chromene-8-carbaldehyde]
- collagen synthesis induced by TGF-β1 combined with AA2P (72 h, co-treatment, FIG. 2B): inhibited
- collagen synthesis induced by Ang II (Ang II (1 μM) 72 h, FIG. 2D): blocked
